The source of these data is patent publication US20220218715A1, “NOVEL USE OF PYRROLO-PYRIDINE DERIVATIVE COMPOUND FOR PREVENTION AND/OR TREATMENT OF CANCER” (VORONOI CO., LTD., priority 2019, published 2022).

Experiment [1] deals with 3LL lung cancer. As to the kind of experiment: Anticancer effect in 3LL lung cancer transplant mouse model. In kind it is in vivo, female C57BL/6 mouse. On the procedure:
(§1) The 3LL cells were cultured in Hams F10:L15=3:7 culture medium, the EMT-6 cells were cultured in Waymouth's MB 752/1 culture medium, and the MC38 cells were cultured in a DMEM culture medium with 10% FBS and 1% penicillin streptomycin, at 37° C. in a 5% CO2 humidified cell culture incubator.
(§2) The mouse PD-1 antibody (BE-0146), PD-L1 antibody (BE-0101), and CTLA-4 antibody (BE-0131) were purchased from BioXcell.
(§3) All animal tests were carried out through WuXi AppTec.

Experiment [2] deals with CAL-27. Briefly: EGFR expression after treatment, western blot or phosphoarray. The following applies: FIG. 7. In kind it is cell-based. The protocol: (§4) For the Ba/F3 EGFR L858R/T790M/C797S cell line, Ba/F3 naive cells purchased from DSMZ were transfected with EGFR L858R/T790M/C797S […] DNA using lipofectamine, and a cell line selected using 1 μg/ml puromycin for 2 weeks was used. Here, the culture medium used was RPMI-1640 with 10% FBS and 1% penicillin streptomycin. The NCI-H2228 and CAL-27 cell lines were purchased from ATCC, and for culturing RPMI-1640 with 10% FBS and 1% penicillin streptomycin was used for NCI-H2228, while for CAL-27 DMEM with 10% FBS and 1% penicillin streptomycin was used.
(§5) As needed, culturing was performed for 1 hour with Cyclohexamine at 30 μg/mL concentration, followed by 15 minutes EGF treatment at a concentration of 100 ng/mL. For the phosphoarray experiment, DYRK1a siRNA was reacted with HEK293T cells for 48 hours at 30 nM concentration, confirming inhibition of DYRK1a expression in the cells. These were used as the control for the main experiment.

The subject of experiment [3] is NCI-H2228. Briefly: EGFR expression and signalling after treatment, western blot. In kind it is cell-based. The note with it: FIG. 7. The protocol:
as §4, §5

The test system of experiment [4] is PC-9 lung cancer cells. As to the kind of experiment: Anticancer effect in mouse model with PC-9 lung cancer cells. In kind it is in vivo, Balb/c Nude Mice. The note with it: PC-9 model. The protocol: The PC-9 cell line was purchased from NanJing Cobioer Biological Technology Co., Ltd. Cells were kept in RPMI-1640 containing 10% FBS, and cultured in a 37° C. humidified cell culture incubator at 5% […]. All animal experiments were carried out according to the Animal Use and Management Guidelines of Shanghai Medicilon Inc. Under sterile conditions, 2×10^6 PC-9 tumor cells (0.1 mL, cell:Matrigel®=1:1) was administered to the right waist of each animal by S.C. administration. Tumor size and animal body weight were measured twice weekly, and clinical symptoms were recorded daily. The mice will be administered individually according to most recent body weight. The tumors were measured using calipers using two measurements, length (a) and width (b). The volume of the tumors was calculated individually as follows, from the two measured diameters of the tumors: tumor volume (mm^3)=(a×b^2)/2.

Experiment [5] addresses T1, ALK (Homo sapiens, UniProt Q9UM73).
T1 construct: purchased DiscoverX
Briefly: scanMAX Kinase analysis panel (DiscoverX). The note with it: 1 μM in DMSO. In kind it is binding. From the text: (§6) [(Example Compound−Positive Control)/(Negative Control−Positive Control)×100]

Experiment [6] deals with T2, LRRK2 (G2019S) (Homo sapiens, UniProt Q5S007, G2019S).
T2 construct: purchased DiscoverX
Briefly: scanMAX Kinase analysis panel (DiscoverX). Type of experiment: binding. The note with it: 1 μM in DMSO.
Description: as §6

Experiment [7] concerns the target T3, STK33 (Homo sapiens, UniProt Q9BYT3).
T3 construct: purchased DiscoverX
As to the kind of experiment: scanMAX Kinase analysis panel (DiscoverX). Type of experiment: binding. The following applies: 1 μM in DMSO.
Description: as §6

The target of experiment [8] is T4, STK39 (Homo sapiens, UniProt Q9UEW8).
T4 construct: purchased DiscoverX scanMAX Kinase analysis panel
Briefly: scanMAX Kinase analysis panel (DiscoverX). Type of experiment: binding. The note with it: 1 μM in DMSO.
Description: as §6

The target in experiment [9] is T5, ALK(C1156Y) (Homo sapiens, UniProt Q9UM73, C1156Y).
T5 construct: purchased DiscoverX
T5 sequence (Q9UM73 19-1620 C1156Y): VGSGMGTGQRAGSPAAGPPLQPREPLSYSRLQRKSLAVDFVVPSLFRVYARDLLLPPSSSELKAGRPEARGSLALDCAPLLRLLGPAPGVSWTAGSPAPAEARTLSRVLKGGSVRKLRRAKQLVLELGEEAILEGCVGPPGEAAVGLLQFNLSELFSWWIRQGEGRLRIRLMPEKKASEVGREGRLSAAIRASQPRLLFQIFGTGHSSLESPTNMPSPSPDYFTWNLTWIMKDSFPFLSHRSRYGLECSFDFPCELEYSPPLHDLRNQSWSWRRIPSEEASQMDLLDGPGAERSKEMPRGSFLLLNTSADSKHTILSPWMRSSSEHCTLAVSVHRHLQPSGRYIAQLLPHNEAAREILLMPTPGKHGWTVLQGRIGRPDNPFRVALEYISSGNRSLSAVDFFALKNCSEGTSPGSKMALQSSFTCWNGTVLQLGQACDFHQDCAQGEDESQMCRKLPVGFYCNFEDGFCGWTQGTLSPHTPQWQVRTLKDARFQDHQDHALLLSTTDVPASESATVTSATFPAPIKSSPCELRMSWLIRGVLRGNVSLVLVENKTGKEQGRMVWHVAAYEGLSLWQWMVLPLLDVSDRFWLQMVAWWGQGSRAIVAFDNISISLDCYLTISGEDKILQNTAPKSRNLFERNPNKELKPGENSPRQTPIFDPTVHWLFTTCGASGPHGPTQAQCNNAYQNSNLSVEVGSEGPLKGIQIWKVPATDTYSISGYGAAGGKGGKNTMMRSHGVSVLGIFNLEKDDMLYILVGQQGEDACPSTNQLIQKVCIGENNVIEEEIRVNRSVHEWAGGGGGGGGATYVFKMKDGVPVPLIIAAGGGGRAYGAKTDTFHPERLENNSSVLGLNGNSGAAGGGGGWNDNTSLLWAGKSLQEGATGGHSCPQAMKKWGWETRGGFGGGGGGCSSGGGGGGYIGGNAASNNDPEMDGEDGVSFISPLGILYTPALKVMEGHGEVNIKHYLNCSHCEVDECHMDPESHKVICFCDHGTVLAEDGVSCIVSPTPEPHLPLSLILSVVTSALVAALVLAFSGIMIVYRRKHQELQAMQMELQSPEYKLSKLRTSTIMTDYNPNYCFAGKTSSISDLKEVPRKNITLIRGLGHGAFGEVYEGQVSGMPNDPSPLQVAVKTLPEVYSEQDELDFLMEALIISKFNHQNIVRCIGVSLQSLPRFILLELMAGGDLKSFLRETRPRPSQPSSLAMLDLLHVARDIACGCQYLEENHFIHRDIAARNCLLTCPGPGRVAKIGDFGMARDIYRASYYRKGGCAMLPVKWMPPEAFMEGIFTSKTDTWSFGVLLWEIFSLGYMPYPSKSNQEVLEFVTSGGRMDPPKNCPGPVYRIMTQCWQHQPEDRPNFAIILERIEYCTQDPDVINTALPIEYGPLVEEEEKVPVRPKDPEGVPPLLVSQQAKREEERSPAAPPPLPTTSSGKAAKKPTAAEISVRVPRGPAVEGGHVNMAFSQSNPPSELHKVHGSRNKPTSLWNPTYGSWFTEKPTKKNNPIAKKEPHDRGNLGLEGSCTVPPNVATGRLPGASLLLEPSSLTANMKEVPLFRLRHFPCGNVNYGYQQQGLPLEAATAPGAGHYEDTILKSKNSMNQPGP
Briefly: scanMAX Kinase analysis panel (DiscoverX). Type of experiment: binding. The following applies: 1 μM in DMSO.
Description: as §6

Experiment [10] addresses T6, ABL1-nonphosphorylated (Homo sapiens, UniProt P00519).
T6 construct: purchased DiscoverX
As to the kind of experiment: scanMAX Kinase analysis panel (DiscoverX). In kind it is binding. The following applies: 1 μM in DMSO.
Description: as §6

For experiment [11], the target named is T7, HUNK (Homo sapiens, UniProt P57058).
T7 construct: purchased DiscoverX scanMAX Kinase analysis panel
Briefly: scanMAX Kinase analysis panel (DiscoverX). The following applies: 1 μM in DMSO. In kind it is binding.
Description: as §6

The target of experiment [12] is T8, ALK (L1196M) (Homo sapiens, UniProt Q9UM73, L1196M).
T8 construct: purchased DiscoverX
T8 sequence (Q9UM73 19-1620 L1196M): as the sequence (Q9UM73 19-1620 C1156Y) above, with Y1138C, L1178M counted along it
Briefly: scanMAX Kinase analysis panel (DiscoverX). Type of experiment: binding. The note with it: 1 μM in DMSO.
Description: as §6

The target in experiment [13] is T9, JNK3 (Homo sapiens, UniProt P53779).
T9 construct: purchased DiscoverX scanMAX Kinase analysis panel
T9 sequence (P53779 whole entry): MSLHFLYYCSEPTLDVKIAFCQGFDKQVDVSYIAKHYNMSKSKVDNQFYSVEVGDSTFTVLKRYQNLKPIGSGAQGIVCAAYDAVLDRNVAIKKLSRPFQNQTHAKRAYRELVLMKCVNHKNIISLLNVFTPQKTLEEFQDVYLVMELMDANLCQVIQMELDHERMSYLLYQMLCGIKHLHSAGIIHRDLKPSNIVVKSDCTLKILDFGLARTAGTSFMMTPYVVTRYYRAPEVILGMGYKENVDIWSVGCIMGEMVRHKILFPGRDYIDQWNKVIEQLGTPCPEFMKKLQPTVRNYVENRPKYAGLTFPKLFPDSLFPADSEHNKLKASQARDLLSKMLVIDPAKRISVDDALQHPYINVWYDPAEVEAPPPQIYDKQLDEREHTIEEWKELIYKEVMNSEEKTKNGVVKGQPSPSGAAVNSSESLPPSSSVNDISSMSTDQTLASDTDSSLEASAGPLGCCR
As to the kind of experiment: scanMAX Kinase analysis panel (DiscoverX). Type of experiment: binding. The following applies: 1 μM in DMSO.
Description: as §6

Experiment [14] concerns the target T10, PLK4 (Homo sapiens, UniProt O00444).
T10 construct: purchased DiscoverX scanMAX Kinase analysis panel
Briefly: scanMAX Kinase analysis panel (DiscoverX). In kind it is binding. The following applies: 1 μM in DMSO.
Description: as §6

The subject of experiment [15] is MC38 colon cancer. Briefly: Anticancer effect in MC38 colon cancer transplant mouse model. In kind it is in vivo, female C57BL/6 mouse. On the procedure: as §1, §2, §3
In experiment [16] the test system is H1975 cell line. As to the kind of experiment: Lung cancer cell colony formation inhibition. In kind it is cell-based. The following applies: concomitant treatment with Gefitinib or Osimertinib, vs single treatment or Harmine, from 10 days, FIG. 1. From the text:
Specifically, the H1975 cell line was purchased from the ATCC (American Type Culture Collection, and RPMI-1640 with 10% FBS and 1% penicillin streptomycin was used.
The remaining colony-forming cells were fixed with methanol (1%) and formaldehyde (1%), then dyed with 0.5% crystal violet before photographing each well.

Where [17] appears, read: singular treatment, 45, 60, 75 mg/kg po BID, FIG. 6a.

Bounds are passed on as bounds.

T3 sequence (Q9BYT3 whole entry): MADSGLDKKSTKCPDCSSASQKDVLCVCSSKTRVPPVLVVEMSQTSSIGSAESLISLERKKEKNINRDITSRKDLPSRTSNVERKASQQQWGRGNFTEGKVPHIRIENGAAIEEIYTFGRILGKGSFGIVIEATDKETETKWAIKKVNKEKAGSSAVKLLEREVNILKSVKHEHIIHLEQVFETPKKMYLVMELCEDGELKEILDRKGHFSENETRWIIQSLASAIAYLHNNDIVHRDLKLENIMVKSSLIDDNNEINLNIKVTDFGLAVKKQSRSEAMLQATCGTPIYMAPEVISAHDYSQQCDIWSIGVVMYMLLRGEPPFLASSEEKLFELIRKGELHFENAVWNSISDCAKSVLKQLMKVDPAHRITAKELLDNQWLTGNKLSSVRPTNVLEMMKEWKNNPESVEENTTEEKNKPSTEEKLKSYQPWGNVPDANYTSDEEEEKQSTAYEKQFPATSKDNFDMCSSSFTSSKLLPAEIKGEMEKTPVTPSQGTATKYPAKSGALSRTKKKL
T6 sequence (P00519 whole entry): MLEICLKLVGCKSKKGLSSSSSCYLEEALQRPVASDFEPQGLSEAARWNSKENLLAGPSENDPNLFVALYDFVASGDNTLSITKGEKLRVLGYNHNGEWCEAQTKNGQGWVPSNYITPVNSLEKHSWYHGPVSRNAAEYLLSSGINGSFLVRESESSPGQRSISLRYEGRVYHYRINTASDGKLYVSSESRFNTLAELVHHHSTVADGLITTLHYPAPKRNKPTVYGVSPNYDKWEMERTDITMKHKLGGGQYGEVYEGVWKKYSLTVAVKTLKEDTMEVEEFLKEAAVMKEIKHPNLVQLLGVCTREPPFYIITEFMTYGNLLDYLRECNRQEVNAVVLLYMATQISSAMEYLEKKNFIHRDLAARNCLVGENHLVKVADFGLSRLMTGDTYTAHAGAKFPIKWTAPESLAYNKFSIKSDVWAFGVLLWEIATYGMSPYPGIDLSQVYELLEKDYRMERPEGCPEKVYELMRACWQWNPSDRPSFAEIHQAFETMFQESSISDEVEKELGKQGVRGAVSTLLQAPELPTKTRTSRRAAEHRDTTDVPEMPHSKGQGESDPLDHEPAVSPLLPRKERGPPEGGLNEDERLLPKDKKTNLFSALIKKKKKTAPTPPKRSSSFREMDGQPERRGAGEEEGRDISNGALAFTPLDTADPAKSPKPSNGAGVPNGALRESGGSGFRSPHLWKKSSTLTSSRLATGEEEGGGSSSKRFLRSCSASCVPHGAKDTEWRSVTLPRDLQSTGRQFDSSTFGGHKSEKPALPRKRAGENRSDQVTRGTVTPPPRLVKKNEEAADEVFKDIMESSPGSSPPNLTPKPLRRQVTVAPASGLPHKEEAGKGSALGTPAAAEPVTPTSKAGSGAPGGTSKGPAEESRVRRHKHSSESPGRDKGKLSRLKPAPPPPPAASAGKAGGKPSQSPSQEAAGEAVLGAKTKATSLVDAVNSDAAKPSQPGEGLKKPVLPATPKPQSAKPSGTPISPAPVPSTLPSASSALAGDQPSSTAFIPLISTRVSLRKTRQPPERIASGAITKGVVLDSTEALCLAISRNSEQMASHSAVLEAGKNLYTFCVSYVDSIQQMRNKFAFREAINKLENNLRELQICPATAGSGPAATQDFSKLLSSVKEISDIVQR
T10 sequence (O00444 whole entry): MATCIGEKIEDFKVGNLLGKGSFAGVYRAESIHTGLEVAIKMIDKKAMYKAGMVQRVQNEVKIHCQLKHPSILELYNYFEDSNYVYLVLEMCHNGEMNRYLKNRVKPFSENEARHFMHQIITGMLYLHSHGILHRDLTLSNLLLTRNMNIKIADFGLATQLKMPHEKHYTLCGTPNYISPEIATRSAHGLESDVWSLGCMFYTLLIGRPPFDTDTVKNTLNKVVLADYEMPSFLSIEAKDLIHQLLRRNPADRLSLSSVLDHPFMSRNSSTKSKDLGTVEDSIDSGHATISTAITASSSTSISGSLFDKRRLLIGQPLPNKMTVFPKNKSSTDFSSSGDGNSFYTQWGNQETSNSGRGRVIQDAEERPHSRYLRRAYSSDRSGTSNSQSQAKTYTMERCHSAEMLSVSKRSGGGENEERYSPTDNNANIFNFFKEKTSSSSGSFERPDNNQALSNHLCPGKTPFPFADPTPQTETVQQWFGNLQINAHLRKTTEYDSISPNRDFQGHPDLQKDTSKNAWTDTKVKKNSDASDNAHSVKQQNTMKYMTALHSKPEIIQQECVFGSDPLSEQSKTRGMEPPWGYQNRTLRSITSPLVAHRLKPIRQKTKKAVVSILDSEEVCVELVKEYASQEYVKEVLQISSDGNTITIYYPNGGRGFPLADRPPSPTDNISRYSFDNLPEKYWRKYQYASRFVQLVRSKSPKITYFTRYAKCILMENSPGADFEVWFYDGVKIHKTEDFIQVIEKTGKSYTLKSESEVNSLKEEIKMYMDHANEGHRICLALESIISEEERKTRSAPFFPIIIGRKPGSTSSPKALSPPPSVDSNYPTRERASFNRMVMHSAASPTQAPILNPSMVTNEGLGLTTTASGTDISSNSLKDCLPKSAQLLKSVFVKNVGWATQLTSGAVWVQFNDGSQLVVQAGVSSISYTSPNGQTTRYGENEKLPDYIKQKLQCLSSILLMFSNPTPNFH
T1 sequence (Q9UM73 19-1620): as the sequence (Q9UM73 19-1620 C1156Y) above, with Y1138C counted along it

In the case of `CCNc1cc(Nc2ccc(C(=O)N3CCC(N4CCOCC4)CC3)cc2OC)nc2[nH]cc(C(F)(F)F)c12` [Compound 1, (4-((4-(ethylamino)-3-(trifluoromethyl)-1H-pyrrolo[2,3-b]pyridine-6-yl)amino)-3-methoxyphenyl) (4-morpholinopiperidine-1-yl)methanone], the tumor suppression effect entry in experiment [1] (concomitant with PD-1, PD-L1 and CTLA-4 antibodies 10 mg/kg IP BIW, FIG. 6b) is “improved concomitant effect”; in experiment [1] (setting [17]) it was “insignificant tumor suppression effect”; in experiment [15] (concomitant with PD-1, PD-L1 and CTLA-4 antibodies 10 mg/kg IP BIW, FIG. 6c), “improved concomitant effect”; in experiment [15] (setting [17]), “insignificant tumor suppression effect”. The EGFR expression result in experiment [2] is “reduced EGFR expression”; in experiment [3] (0.5, 1.2 and 5 μM, 4 or 24 hours), “reduced EGFR expression”. In experiment [2] (phosphoarray, 2 μM, 48 hours), the “p-EGFR (Y-1086) expression” value is on record as “Reduction in expression”. In addition, in experiment [3], the “p-AKT (S473)” value is recorded as “reduction”. Besides, in experiment [3], the “p-Erk 1/2 (T202/Y204)” value is on record as “reduction”. Besides, the anticancer effect result in experiment [4] (Compound 1 20 or 40 mg/kg concomitant with Gefitinib 10 mg/kg, PO QD, vs Gefitinib alone, FIG. 4) is “substantially reduced lung cancer (PC-9) cells”; in experiment [4] (Compound 1 20 or 40 mg/kg concomitant with Osimertinib 3 mg/kg, PO QD, vs Osimertinib alone, FIG. 3), “substantially reduced lung cancer (PC-9) cells”; in experiment [4] (singular treatment with Compound 1, 40 mg/kg PO QD) it was “no anticancer effect”. Further, the inhibition at 1 µM in [5] was no less than 59%; in [6], no less than 59%; in experiment [7], no less than 59%; in experiment [8] it was 40 to 59%; in experiment [9], no less than 59%; in experiment [10], 40 to 59%. Also, the inhibition at 1 µM was 40 to 59% in experiment [11], no less than 59% in experiment [12], 40 to 59% in [13] and 40 to 59% in [14]. The colony formation inhibition entry in experiment [16] is reported as “substantially inhibit formation of lung cancer cell colonies”.
